Source: patent US6525065B1, “Pharmaceutical compositions and methods for effecting dopamine release” (priority 1997, dated 2003)
Structures can show the parent of a compound that is named as a salt. Where two headings read alike, the source gives them in different places.

Assays:
dopamine release = assay: tissue or blood; type: cell-based; conditions: for Dopamine Release Ecmax: amount released relative to (S)-(-)-nicotine on a percentage basis; for EC50: read-out: Dopamine Release EC50
[1] = biological target: T1, muscle-type nicotinic acetylcholine receptors (Homo sapiens, UniProt P02708+P07510+Q07001); assay: cell-based
T1 construct: endogenous in cells; host or cells: TE671/RD (own knowledge of the cited US 5,597,919)
T1 sequence (P02708 21-457): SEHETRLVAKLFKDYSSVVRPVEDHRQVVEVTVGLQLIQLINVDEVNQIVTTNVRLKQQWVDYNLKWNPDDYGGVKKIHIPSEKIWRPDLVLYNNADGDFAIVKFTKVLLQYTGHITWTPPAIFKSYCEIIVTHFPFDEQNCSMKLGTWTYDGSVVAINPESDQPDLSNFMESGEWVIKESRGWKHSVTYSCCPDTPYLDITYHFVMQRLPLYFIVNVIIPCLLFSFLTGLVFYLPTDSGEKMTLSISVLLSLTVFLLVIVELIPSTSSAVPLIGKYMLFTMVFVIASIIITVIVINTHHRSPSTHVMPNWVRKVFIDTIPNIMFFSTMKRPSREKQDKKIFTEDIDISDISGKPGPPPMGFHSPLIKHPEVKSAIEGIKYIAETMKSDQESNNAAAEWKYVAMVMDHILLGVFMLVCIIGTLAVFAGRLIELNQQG
T1 sequence (P11230 24-501 partner): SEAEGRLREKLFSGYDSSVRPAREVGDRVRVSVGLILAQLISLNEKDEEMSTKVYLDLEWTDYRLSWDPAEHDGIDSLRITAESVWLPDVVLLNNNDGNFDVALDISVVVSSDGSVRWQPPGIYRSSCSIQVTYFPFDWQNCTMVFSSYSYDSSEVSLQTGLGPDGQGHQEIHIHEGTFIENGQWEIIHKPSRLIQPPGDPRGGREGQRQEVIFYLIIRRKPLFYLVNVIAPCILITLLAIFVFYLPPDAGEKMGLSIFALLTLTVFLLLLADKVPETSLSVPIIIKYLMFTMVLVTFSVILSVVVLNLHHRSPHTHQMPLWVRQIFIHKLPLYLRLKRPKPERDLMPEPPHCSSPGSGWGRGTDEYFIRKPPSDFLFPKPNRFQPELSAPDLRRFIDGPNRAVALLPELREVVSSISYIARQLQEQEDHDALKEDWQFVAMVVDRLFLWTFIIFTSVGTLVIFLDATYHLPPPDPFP
T1 sequence (Q07001 22-517): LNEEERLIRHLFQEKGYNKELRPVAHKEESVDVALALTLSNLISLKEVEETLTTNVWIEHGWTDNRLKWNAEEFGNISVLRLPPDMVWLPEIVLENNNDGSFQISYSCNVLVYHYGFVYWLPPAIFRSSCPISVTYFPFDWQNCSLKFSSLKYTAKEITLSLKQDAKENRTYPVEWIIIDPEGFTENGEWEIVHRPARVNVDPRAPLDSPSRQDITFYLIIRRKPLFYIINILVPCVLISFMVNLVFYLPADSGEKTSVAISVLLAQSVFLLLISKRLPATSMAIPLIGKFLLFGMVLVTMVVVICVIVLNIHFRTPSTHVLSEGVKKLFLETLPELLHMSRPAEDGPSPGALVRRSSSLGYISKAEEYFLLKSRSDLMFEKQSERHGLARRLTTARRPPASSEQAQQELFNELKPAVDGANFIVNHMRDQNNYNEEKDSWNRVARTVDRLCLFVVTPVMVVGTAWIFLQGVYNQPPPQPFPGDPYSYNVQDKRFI
T1 sequence (P07510 23-517): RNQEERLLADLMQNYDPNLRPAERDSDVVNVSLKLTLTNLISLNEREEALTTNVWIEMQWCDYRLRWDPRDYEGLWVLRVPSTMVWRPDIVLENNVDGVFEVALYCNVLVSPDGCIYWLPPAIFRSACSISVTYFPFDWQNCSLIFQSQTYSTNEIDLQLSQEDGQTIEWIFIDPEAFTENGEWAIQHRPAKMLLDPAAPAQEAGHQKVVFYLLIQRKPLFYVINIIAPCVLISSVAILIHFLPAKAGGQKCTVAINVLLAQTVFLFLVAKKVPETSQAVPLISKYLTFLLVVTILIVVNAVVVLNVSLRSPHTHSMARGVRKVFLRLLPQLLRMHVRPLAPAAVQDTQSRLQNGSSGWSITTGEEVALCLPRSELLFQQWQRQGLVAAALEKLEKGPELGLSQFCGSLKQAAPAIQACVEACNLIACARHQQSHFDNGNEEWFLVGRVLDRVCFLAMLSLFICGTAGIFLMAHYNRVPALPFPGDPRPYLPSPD

[2] = biological target: ganglionic-type nicotinic acetylcholine receptors (Rattus norvegicus, UniProt P04757+P12392); assay: cell-based; conditions: read-out: Ganglion Effect Ecmax
Chain of ganglionic-type nicotinic acetylcholine receptors (P04757 26-499): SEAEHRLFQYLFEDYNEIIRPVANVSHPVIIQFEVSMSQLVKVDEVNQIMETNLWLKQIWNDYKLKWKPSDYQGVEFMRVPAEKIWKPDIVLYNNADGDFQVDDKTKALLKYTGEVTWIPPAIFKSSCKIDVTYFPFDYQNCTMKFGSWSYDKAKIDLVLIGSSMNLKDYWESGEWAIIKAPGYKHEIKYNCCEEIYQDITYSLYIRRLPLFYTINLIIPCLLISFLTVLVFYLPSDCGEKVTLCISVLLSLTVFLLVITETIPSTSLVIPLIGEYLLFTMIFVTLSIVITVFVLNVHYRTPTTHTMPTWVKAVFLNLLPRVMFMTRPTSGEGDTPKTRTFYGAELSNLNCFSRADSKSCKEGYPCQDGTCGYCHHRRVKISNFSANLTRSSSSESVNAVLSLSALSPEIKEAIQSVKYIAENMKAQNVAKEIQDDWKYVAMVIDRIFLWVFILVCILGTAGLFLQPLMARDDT
Chain of ganglionic-type nicotinic acetylcholine receptors (P12392 21-495): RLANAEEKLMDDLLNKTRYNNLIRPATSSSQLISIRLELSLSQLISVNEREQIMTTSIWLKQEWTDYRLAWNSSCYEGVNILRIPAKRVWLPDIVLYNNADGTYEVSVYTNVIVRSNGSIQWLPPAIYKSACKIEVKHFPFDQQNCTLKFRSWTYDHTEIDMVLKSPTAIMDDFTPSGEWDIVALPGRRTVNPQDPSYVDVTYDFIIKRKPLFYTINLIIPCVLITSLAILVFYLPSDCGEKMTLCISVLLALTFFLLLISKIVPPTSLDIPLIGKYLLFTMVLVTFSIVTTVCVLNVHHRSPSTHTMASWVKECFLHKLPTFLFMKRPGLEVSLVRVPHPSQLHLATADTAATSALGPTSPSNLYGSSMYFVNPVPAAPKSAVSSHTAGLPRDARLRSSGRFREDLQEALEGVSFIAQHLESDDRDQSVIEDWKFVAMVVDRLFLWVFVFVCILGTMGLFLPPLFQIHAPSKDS

[3] = maximal activation as percentage of that induced by (S)-(-)-nicotine
[4] = read-out: Dopamine Release Ecmax, amount released relative to (S)-(-)-nicotine on a percentage basis
[5] = read-out: Dopamine Release Ecmax

Brc1cncc(C2CC3CCN2CC3)c1 (racemic) [Sample No. 2]
Dopamine Release Ecmax (dopamine release): 43% | EC50 (dopamine release): 2 nM | Muscle Effect Ecmax [1, 3]: 133% | Emax [2]: 106%

Nc1cncc(C2CC3CCN2CC3)c1 (stereo not drawn) [Sample No. 6, 5-(1-azabicyclo[2.2.2]oct-2-yl-3-(amino)pyridinetrihydrochloride]
Dopamine Release Ecmax (dopamine release): 43% | EC50 (dopamine release): 7 nM | amounts causing muscle effects and effects upon ganglia relative to those required to cause dopamine release (dopamine release; selectivity of dopamine release over muscle and ganglion effects): many times | Muscle Effect Ecmax [1, 3]: 100% | EC50 ([1]; read-out: Muscle Effect EC50): 3000 nM | Emax [2, 3]: 75%

c1cncc([C@H]2C[C@@H]3CCN2C3)c1 (relative stereo) [Sample No. 3, exo 1-aza-2-(3-pyridyl)bicyclo[2.2.1]heptane]
EC50 (dopamine release): 6 nM | Emax (dopamine release; [4]): 130% | EC50 [1]: 100 nM | Muscle Effect Ecmax [1, 3]: 130% | Emax [2]: 100%

c1cncc([C@@H]2C[C@@H]3CCN2C3)c1 (relative stereo) [Sample No. 4, endo-1-aza-2-(3-pyridyl)bicyclo[2.2.1]heptane]
Dopamine Release Ecmax (dopamine release): 114% | EC50 (dopamine release): 33 nM | Muscle Effect Ecmax [1, 3]: 130% | EC50 ([1]; read-out: Muscle Effect EC50): 100 nM

c1cncc(C2C3CCN2CC3)c1 (stereo not drawn) [Sample No. 5, 1-aza-7-(3-pyridyl)bicyclo[2.2.1]heptane]
EC50 (dopamine release): 4 nM | Emax (dopamine release; [4]): 93% | EC50 [1]: 300 nM | Muscle Effect Ecmax [1, 3]: 130% | Emax [2]: 120%

CN1CCC[C@H]1c1cccnc1 [Sample No. C-1, (S)-(−)-nicotine, reference compound]
EC50 (dopamine release): 115 nM | Emax (dopamine release; [5]): 100% | EC50 [1]: 60000 nM | Muscle Effect Ecmax [1]: 100%

CCOc1cncc(C2CC3CCN2CC3)c1.Cl.Cl (stereo not drawn) [Sample No. 7, 5-(1-azabicyclo[2.2.2]oct-2-yl)-3-(ethoxy)pyridine dihydrochloride]
EC50 (dopamine release): 5 nM | Emax (dopamine release; [4]): 40% | EC50 [1]: 700 nM | Muscle Effect Ecmax [1, 3]: 137% | Emax [2]: 86%

CC(C)Oc1cncc(C2CC3CCN2CC3)c1 (stereo not drawn) [Sample No. 8, 5-(1-azabicyclo[2.2.2]oct-2-yl-3-(isopropyloxy)pyridinedihydrochloride]
EC50 ([1]; read-out: Muscle Effect EC50): 3000 nM | Emax [2]: 94%

c1cncc(C2CC3CCN2CC3)c1 (racemic) [Sample No. 1, (+/−)-1-aza-2-(3-pyridyl)bicyclo[2.2.2]octane]
EC50 (dopamine release): 2 nM | Emax (dopamine release; [5]): 40% | Muscle Effect Ecmax [1]: 110% | Emax [2]: 85%
